# Measurements from PubChem BioAssay (NCI).
#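 At the GI50, growth is halved. At the TGI there is no net growth.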
# Columns and labels:
# Assay in all cases: NCI tumour cell line growth inhibition, 384-well format
# [1] = system: 786-0 renal
# [2] = system: A498 renal
# [3] = system: A549 NSCLC
# [4] = system: ACHN renal
# [5] = system: BT-549 breast
# [6] = system: CAKI-1 renal
# [7] = system: CCRF-CEM leukemia
# [8] = system: COLO 205 colon
# [9] = system: DU-145 prostate
# [10] = system: HCC-2998 colon
# [11] = system: HCT-116 colon
# [12] = system: HCT-15 colon
# [13] = system: HL-60(TB) leukemia
# [14] = system: HOP-62 NSCLC
# [15] = system: HOP-92 NSCLC
# [16] = system: HT29 colon
# [17] = system: IGROV1 ovarian
# [18] = system: K-562 leukemia
# [19] = system: KM12 colon
# [20] = system: LOX IMVI melanoma
# [21] = system: M14 melanoma
# [22] = system: MALME-3M melanoma
# [23] = system: MCF7 breast
# [24] = system: MDA-MB-231 breast
# [25] = system: MDA-MB-435 melanoma
# [26] = system: MDA-MB-468 breast
# [27] = system: MOLT-4 leukemia
# [28] = system: NCI-H226 lung
# [29] = system: NCI-H23 lung
# [30] = system: NCI-H322M lung
# [31] = system: NCI-H460 NSCLC
# [32] = system: NCI-H522 lung
# [33] = system: NCI/ADR-RES ovarian
# [34] = system: OVCAR-3 ovarian
# [35] = system: OVCAR-4 ovarian
# [36] = system: OVCAR-5 ovarian
# [37] = system: OVCAR-8 ovarian
# [38] = system: PC-3 prostate
# [39] = system: RPMI-8226 leukemia
# [40] = system: RXF 393 renal
# [41] = system: SF-268 CNS
# [42] = system: SF-295 CNS
# [43] = system: SF-539 CNS
# [44] = system: SK-MEL-2 melanoma
# [45] = system: SK-MEL-28 melanoma
# [46] = system: SK-MEL-5 melanoma
# [47] = system: SK-OV-3 ovarian
# [48] = system: SN12C renal
# [49] = system: SNB-19 CNS
# [50] = system: SR leukemia
# [51] = system: SW-620 colon
# [52] = system: T-47D breast
# [53] = system: TK-10 renal
# [54] = system: U251 glioblastoma
# [55] = system: UACC-257 melanoma
# [56] = system: UACC-62 melanoma
# [57] = system: UO-31 renal
structure (smiles),measurement,setting,value
C=CC(=O)N1CCN(c2nc(OC[C@@H]3CCCN3C)nc3c2CCN(c2cccc4cccc(C)c24)C3)C[C@@H]1CC#N,GI50,[1],705 nM
same,TGI,[1],1990 nM
same,GI50,[2],485 nM
same,TGI,[2],1700 nM
same,GI50,[3],1310 nM
same,TGI,[3],2610 nM
same,GI50,[4],350 nM
same,TGI,[4],1600 nM
same,GI50,[5],265 nM
same,TGI,[5],999 nM
same,GI50,[6],422 nM
same,TGI,[6],1430 nM
same,GI50,[7],133 nM
same,TGI,[7],265 nM
same,GI50,[8],1230 nM
same,TGI,[8],2490 nM
same,GI50,[9],1400 nM
same,TGI,[9],2710 nM
same,GI50,[10],1230 nM
same,TGI,[10],2490 nM
same,GI50,[11],526 nM
same,TGI,[11],1740 nM
same,GI50,[12],1010 nM
same,TGI,[12],2190 nM
same,GI50,[13],181 nM
same,TGI,[13],322 nM
same,GI50,[14],< 10 nM
same,TGI,[14],1120 nM
same,GI50,[15],223 nM
same,TGI,[15],687 nM
same,GI50,[16],1260 nM
same,TGI,[16],2540 nM
same,GI50,[17],1390 nM
same,TGI,[17],2700 nM
same,GI50,[18],918 nM
same,TGI,[18],2130 nM
same,GI50,[19],1060 nM
same,TGI,[19],2260 nM
same,GI50,[20],1590 nM
same,TGI,[20],2950 nM
same,GI50,[21],1270 nM
same,TGI,[21],2530 nM
same,GI50,[22],1220 nM
same,TGI,[22],2460 nM
same,GI50,[23],834 nM
same,TGI,[23],2090 nM
same,GI50,[24],312 nM
same,TGI,[24],1270 nM
same,GI50,[25],1220 nM
same,TGI,[25],2480 nM
same,GI50,[26],367 nM
same,TGI,[26],1020 nM
same,GI50,[27],160 nM
same,TGI,[27],299 nM
same,GI50,[28],1160 nM
same,TGI,[28],2390 nM
same,GI50,[29],< 10 nM
same,GI50,[30],1440 nM
same,TGI,[30],2760 nM
same,GI50,[31],754 nM
same,TGI,[31],2060 nM
same,GI50,[32],343 nM
same,TGI,[32],1390 nM
same,GI50,[33],1610 nM
same,TGI,[33],2970 nM
same,GI50,[34],362 nM
same,TGI,[34],1360 nM
same,GI50,[35],465 nM
same,TGI,[35],1690 nM
same,GI50,[36],1470 nM
same,TGI,[36],2800 nM
same,GI50,[37],1050 nM
same,TGI,[37],2240 nM
same,GI50,[38],759 nM
same,TGI,[38],1980 nM
same,GI50,[39],193 nM
same,TGI,[39],377 nM
same,GI50,[40],189 nM
same,TGI,[40],575 nM
same,GI50,[41],495 nM
same,TGI,[41],1670 nM
same,GI50,[42],1590 nM
same,TGI,[42],2940 nM
same,GI50,[43],644 nM
same,TGI,[43],1940 nM
same,GI50,[44],194 nM
same,TGI,[44],595 nM
same,GI50,[45],1620 nM
same,TGI,[45],2980 nM
same,GI50,[46],1500 nM
same,TGI,[46],2840 nM
same,GI50,[47],540 nM
same,TGI,[47],1860 nM
same,GI50,[48],1240 nM
same,TGI,[48],2500 nM
same,GI50,[49],1570 nM
same,TGI,[49],2930 nM
same,GI50,[50],134 nM
same,TGI,[50],267 nM
same,GI50,[51],1310 nM
same,TGI,[51],2620 nM
same,GI50,[52],637 nM
same,TGI,[52],2010 nM
same,GI50,[53],505 nM
same,TGI,[53],1700 nM
same,GI50,[54],1010 nM
same,TGI,[54],2200 nM
same,GI50,[55],833 nM
same,TGI,[55],2070 nM
same,GI50,[56],411 nM
same,TGI,[56],1500 nM
same,GI50,[57],983 nM
same,TGI,[57],2150 nM
